Experiments:
[1] = 50 mg/kg; intraperitoneal injection; P388 Leukemia-bearing CD2F1 mice; cited from earlier work
[2] = NCI in vivo screening data; cited from earlier work
RPMI 8226 cells = assay: Drug resistance and cytotoxicity MTT assay, RPMI 8226; format: cell-based, human; conditions: 96 hours
Protocol: FIGS. 13A-13B show dose response of RPMI 8226 and 8226/Dox1V myeloma cells to EPED3 (FIG. 13A) or Dox (FIG. 13B). Cells were incubated for 96 hours with drug concentrations as indicated and analyzed by MTT assays; linear regression analysis was used to determine the IC50 for each drug (EPED3, FIG. 13A; Dox, FIG. 13B) and each cell line (RPMI8226, squares; 8226/Dox1V, circles). Data are presented as the mean of four independent experiments.
The 8226/Dox1V and its parental line, RPMI 8226, cells were plated in 96-well plates at 10,000 cells/well and incubated with serial dilutions of EPED3 or Dox, as previously described (Landowski et al., 1999). After 96 hours incubation at 37° C., MTT was added to each well at a final concentration of 20 μg/ml and incubated an additional 4 hours. Plates were centrifuged and the media replaced with 0.1 ml DMSO to solublize the formazan complex. Optical density was measured at 540 nm using a Bio-Tek microplate spectrophotometer. IC50 values were calculated by linear regression analysis (Origins® Software Technologies, Inc.) of the log-linear plot for percent survival versus log drug concentration.
In drug resistance studies, the efficacy of EPED3 with 8226/Dox1V cells and the parental line, RPMI 8226 cells was investigated. Both cell lines were treated with either EPED3 or Dox, and the MTT assays were used to assess cell growth. […]

[3] = system: myeloma cell lines engrafted in SCID mice; format: in vivo; conditions: 25 and 50 mg/kg/day; Alzet osmotic pumps; 28 days; contemplated
Text: The present invention also examines novel therapeutic approaches for myeloma using experimental animal models. The anti-myeloma efficacy of 9-(Dimethylaminoethoxy)-ellipticine is examined using a panel of myeloma cell lines engrafted in severe combined immunodeficient (SCID) mice. The 3 cell lines are infected with a lentivirus-containing luciferase. Luciferase-expressing myeloma cells can be traced in live animals using the Xenogen IVIS 200 luminescence imaging system. Six to 8 weeks old SCID mice are subcutaneously injected with 10^7 myeloma cells. Tumor growth in live animals is monitored by measuring circulating level of monoclonal human immunoglobulins (hIg) in mice sera using ELISA (Yaccoby et al., 1998; Yang et al., 2002) and through imaging of tumor cells luminescence intensity. The tumor growth is detected within one week by ELISA and within 1-3 weeks by imaging.
Upon establishment of myeloma growth as determined by both methods, mice are randomly divided into 3 groups; one control and 2 treated with different doses of 9-(Dimethylaminoethoxy)-ellipticine (8 mice/group for each cell line). Mice are implanted with Alzet osmotic pumps delivering 0.25 μl of drug solution per hour for 28 days. The daily doses are 25 and 50 mg/kg/day. Control animals have pumps loaded with buffer (PBS) only. At the experiments' end, mice are subjected to imaging analysis, bled and sacrificed. […]

[4] = system: Fetal bone mesenchymal cells; assay: Selectivity: viability of normal fetal bone mesenchymal cells (CellTiter-Glo); format: cell-based, human; conditions: 0.01-1.0 mM; five days
Protocol: The cell viability was tested every day for a period of five days. It was observed that these cells were not killed by the concentrations that were otherwise toxic to the myeloma cells.
Fetal bone mesenchymal cells were contacted with NSC 338258 in ninety six well culture plates. The concentrations of NSC 338258 were set at 0.01, 0.03. 0.1, 0.3 and 1.0 mM (FIG. 7).

Ark myeloma cell line = assay: CellTiter-Glo luminescent cell viability assay, Ark; format: cell-based, human; parameters: unit of the concentration uncertain
Protocol: The dosage of each derivative was set at 2, 0.2 and 0.02 mM. A cell culture medium control and 0.5% DMSO control was maintained in each experiment. The cell viability was tested each day over a period of five days using the CellTiter-Glo luminescent cell viability assay kit from Promega Co.
Cell Titer-Glo luminescent cell viability assay kit from Promega Co (Madison, Wis.) was used to determine cell growth inhibition by the various compounds tested. The kit determines cell viability by quantifying the amount of ATP present in the cell culture medium. Presence of ATP signals the presence of metabolically active cells (3). The intensity of luminescence was measured by a computerized luminometer (Promega, Co. Madison, Wis.). Each well was read five times within 30 minutes of adding Cell Titer-Glo reagent mixture.
Cells were contacted with the antineoplastic agents in ninety six well culture plates. The concentration of each neoplastic agent was maintained a constant. A cell culture medium control and 0.5% DMSO control were maintained in each set of experiments. The cell viability was tested every day using the CellTiter-Glo luminescent cell viability kit from Promega Co. (Madison, Wis.) for a period of five days.

Cc1c2ccncc2c(C)c2c1[nH]c1ccc(OCCN(C)C)cc12 [NSC 338258, ellipticine, 9-dimethyl amino-ethoxy-]
animals survived EPED3 toxicity for at least 5 days [1]: five out of six
dosages for animals surviving the toxicity of the compounds [2]: 25.0 mg/kg body weight
IC50 (RPMI 8226 cells): 150 nM
inhibition of myeloma cell growth in vivo [3]: effectively inhibits myeloma cell growth in vivo
killing of fetal bone derived normal mesenchymal cells [4]: not killed
cell viability (CellTiter-Glo luminescent assay) (Ark myeloma cell line; 0.02 (unit uncertain), Day 1): 99,050
cell viability (CellTiter-Glo luminescent assay) (Ark myeloma cell line; 0.02 (unit uncertain), Day 2): 187,835
cell viability (CellTiter-Glo luminescent assay) (Ark myeloma cell line; 0.02 (unit uncertain), Day 3): 297,927
cell viability (CellTiter-Glo luminescent assay) (Ark myeloma cell line; 0.02 (unit uncertain), Day 4): 764,382
cell viability (CellTiter-Glo luminescent assay) (Ark myeloma cell line; 0.02 (unit uncertain), Day 5): 982,255
cell viability (CellTiter-Glo luminescent assay) (Ark myeloma cell line; 0.2 (unit uncertain), Day 1): 1,085
cell viability (CellTiter-Glo luminescent assay) (Ark myeloma cell line; 0.2 (unit uncertain), Day 2): 489
cell viability (CellTiter-Glo luminescent assay) (Ark myeloma cell line; 0.2 (unit uncertain), Day 3): 384
cell viability (CellTiter-Glo luminescent assay) (Ark myeloma cell line; 0.2 (unit uncertain), Day 4): 530
cell viability (CellTiter-Glo luminescent assay) (Ark myeloma cell line; 0.2 (unit uncertain), Day 5): 376
cell viability (CellTiter-Glo luminescent assay) (Ark myeloma cell line; 2 (unit uncertain), Day 1): 523
cell viability (CellTiter-Glo luminescent assay) (Ark myeloma cell line; 2 (unit uncertain), Day 2): 342
cell viability (CellTiter-Glo luminescent assay) (Ark myeloma cell line; 2 (unit uncertain), Day 3): 366
cell viability (CellTiter-Glo luminescent assay) (Ark myeloma cell line; 2 (unit uncertain), Day 4): 478
cell viability (CellTiter-Glo luminescent assay) (Ark myeloma cell line; 2 (unit uncertain), Day 5): 299

Reference: patent US20070027175A1, “Antineoplastic activities of ellipticine and its derivatives” (priority 2005, published 2007)
